Measurements taken from EP3241830A1, “CONDENSED BICYCLIC HETEROCYCLIC DERIVATIVES AS PESTICIDES” (Bayer CropScience Aktiengesellschaft, priority 2016, dated 2017).

Columns and labels:
[1] = logP determination by HPLC on a reversed-phase column (C18), EEC Directive 79/831 Annex V.A8; assay type: physicochemical; conditions: LC-MS in the acidic range, pH 2,7, 0,1 % aqueous formic acid and acetonitrile, 55°C, read-out: logP (HCOOH)
Method: Die Messung der logP Werte erfolgt gemäß EEC Directive 79/831 Annex V.A8 durch HPLC (High Performance Liquid Chromatography) an einer Phasenumkehrsäule (C 18). Temperatur: 55°C.
Die Bestimmung mit der LC-MS im sauren Bereich erfolgt bei pH 2,7 mit 0,1 % wässriger Ameisensäure und Acetonitril (enthält 0,1% Ameisensäure) als Eluenten; linearer Gradient von 10% Acetonitril bis 95% Acetonitril. In der Tabelle logP (HCOOH) genannt.
Die Eichung erfolgt mit unverzweigten Alkan-2-onen (mit 3 bis 16 Kohlenstoffatomen), deren logP-Werte bekannt sind (Bestimmung der logP-Werte anhand der Retentionszeiten durch lineare Interpolation zwischen zwei aufeinander folgenden Alkanonen).

[2] = test system: Phaedon cochleariae; test: Phaedon cochleariae spray test; assay type: in vivo; conditions: foliar, 168 h, after 7 days, sprayed Chinese cabbage leaf discs (Brassica pekinensis) with larvae, 100 % = all beetle larvae killed, read-out: Wirkung
Excerpt: Lösungsmittel: • 78,0 Gewichtsteile Aceton • 1,5 Gewichtsteile Dimethylformamid Emulgator: Alkylarylpolyglykolether
(§1) Zur Herstellung einer zweckmäßigen Wirkstoffzubereitung löst man 1 Gewichtsteil Wirkstoff mit den angegebenen Gewichtsteilen Lösungsmittel und füllt mit Wasser, welches eine Emulgatorkonzentration von 1000 ppm enthält, bis zum Erreichen der gewünschten Konzentration auf. Zur Herstellung weiterer Testkonzentrationen wird mit emulgatorhaltigem Wasser verdünnt.
Chinakohlblattscheiben (Brassica pekinensis) werden mit einer Wirkstoffzubereitung der gewünschten Konzentration gespritzt und nach dem Abtrocknen mit Larven des Meerrettichblattkäfers (Phaedon cochleariae) besetzt.
Nach 7 Tagen wird die Wirkung in % bestimmt. Dabei bedeutet 100 %, dass alle Käferlarven abgetötet wurden; 0 % bedeutet, dass keine Käferlarven abgetötet wurden.

[3] = test system: Myzus persicae; test: Myzus persicae spray test; assay type: in vivo; conditions: foliar, 120 h, after 5 days, sprayed Chinese cabbage leaf discs (Brassica pekinensis) infested with all stages, 100 % = all aphids killed, read-out: Wirkung
Excerpt: Lösungsmittel: • 78 Gewichtsteile Aceton • 1,5 Gewichtsteile Dimethylformamid Emulgator: Alkylarylpolyglykolether
as §1
Chinakohlblattscheiben (Brassica pekinensis), die von allen Stadien der Grünen Pfirsichblattlaus (Myzus persicae) befallen sind, werden mit einer Wirkstoffzubereitung der gewünschten Konzentration gespritzt.
Nach 5 Tagen wird die Wirkung in % bestimmt. Dabei bedeutet 100 %, dass alle Blattläuse abgetötet wurden; 0 % bedeutet, dass keine Blattläuse abgetötet wurden.

chromatographic logP [1]	Compound	mortality at 500 g/ha [2]	mortality at 500 g/ha [3]
3.11	CCS(=O)(=O)c1c(-c2nc3cc(C(F)(F)F)ncc3n2C)n(C)c2cc(Cl)ccc12 [Bsp. I-1, 2-(6-Chlor-3-ethylsulfonyl-1-methyl-indol-2-yl)-3-methyl-6-(trifluormethyl)imidazo[4,5-c]pyridin]	100%	90%
4.51	CCSc1c(-c2nc3cc(C(F)(F)F)ncc3n2C)n(C)c2cc(Cl)ccc12 [Bsp. I-2, 2-(6-Chlor-3-ethylsulfanyl-1-methyl-indol-2-yl)-3-methyl-6-(trifluormethyl)imidazo[4,5-c]pyridin]		
4.23	Cn1c(-c2c(Cl)c3ccc(Cl)cc3n2C)nc2cc(C(F)(F)F)ncc21 [Bsp. V-1, 2-(3,6-Dichlor-1-methyl-indol-2-yl)-3-methyl-6-(trifluormethyl)imidazo[4,5-c]pyridin]		
